These results are taken from ChEMBL document CHEMBL1130806, “Enhanced potency of perfluorinated thalidomide derivatives for inhibition of LPS-induced tumor necrosis factor-alpha production is associated with a change of mechanism of action” (Bioorg Med Chem Lett, 1998).

What all share (assay type): functional, cell-based
The subject of one test is THP-1. In words: Inhibition of LPS-induced Tumor necrosis factor-alpha production (TNF-alpha) in THP-1 cells. The settings on record: Homo sapiens.
Test [1] in a line: Compound was tested for the inhibition of production of IL-6 in human monocytes.
Test [2] in a line: Compound was tested for the inhibition of production of IL-1 beta in human monocytes.

A word on the IC50: it is the point on the concentration scale where inhibition reaches its midpoint. Low readings indicate higher potency, high ones lower potency.

As to `COC(=O)C[C@@H](c1ccc(OC)c(OC)c1)N1C(=O)c2c(F)c(F)c(F)c(F)c2C1=O`, the IC50 in the test on THP-1 was 313 nM. In the test with THP-1, `O=C1c2c(F)c(F)c(F)c(F)c2C(=O)N1c1ccccc1` came in with an IC50 of 425 nM. Consider `C[C@@H](c1ccccc1)N1C(=O)c2c(F)c(F)c(F)c(F)c2C1=O`, for which the IC50 in the test on THP-1 was 367 nM.

`C[C@]1(N2C(=O)c3c(F)c(F)c(F)c(F)c3C2=O)CCC(=O)NC1=O`: the IC50 with THP-1 turned out to be 443 nM. In the test with THP-1, `CC1(N2C(=O)c3c(F)c(F)c(F)c(F)c3C2=O)CCC(=O)NC1=O` (racemic) gave an IC50 of 378 nM. As for `CC(c1ccccc1)N1C(=O)c2c(F)c(F)c(F)c(F)c2C1=O` (racemic), the midpoint of inhibition in the test on THP-1, the IC50, lay at 415 nM.

As to `O=C1CCC(N2C(=O)c3c(F)c(F)c(F)c(F)c3C2=O)C(=O)N1` (stereo unspecified), the values for the half-maximal inhibitory concentration (IC50) (with THP-1; in test [1]; in test [2]) were 490 nM, 700 nM and 400 nM, respectively. Regarding `COC(=O)CC(c1ccc(OC)c(OC)c1)N1C(=O)c2c(F)c(F)c(F)c(F)c2C1=O` (racemic), the 50% inhibitory concentration (IC50) in the test with THP-1 came out at 249 nM; in test [1], 300 nM; in test [2], 400 nM.

`CN1C(=O)c2c(F)c(F)c(F)c(F)c2C1=O` had an IC50 in the test on THP-1 of 413 nM. In the case of `C[C@@]1(N2C(=O)c3c(F)c(F)c(F)c(F)c3C2=O)CCC(=O)NC1=O`, half-maximal inhibition in the test with THP-1 (IC50) was put at 494 nM.

Regarding `C[C@H](c1ccccc1)N1C(=O)c2c(F)c(F)c(F)c(F)c2C1=O`, the IC50 in the test on THP-1 worked out at 434 nM. The compound `COC(=O)C[C@H](c1ccc(OC)c(OC)c1)N1C(=O)c2c(F)c(F)c(F)c(F)c2C1=O` had an IC50 in the test with THP-1 of 250 nM.
